These results are taken from patent US7968535B2, “Use of azapaullones for preventing and treating pancreatic autoimmune disorders” (Develogen Atkiengesellschaft, priority 2005, dated 2011).

The subject of experiment [1] is human GSK3. Nature of the experiment: IC50 Profiler Express kinase assay. As to conditions: 10-point curves in duplicate. The experiment is classed as biochemical. As for the experimental part: (§1) Experiments were carried out by Upstate Ltd. according to the protocols described in KinaseProfiler™ Assay Protocols, IC50 Profiler Express™ (10-point curves in duplicate) Fall 2004 by Ustate Cell Signaling solutions.

In experiment [2] the target is T1, cyclin dependent kinase 1 (Homo sapiens, UniProt P06493).
T1 construct: purchased Upstate Ltd. (IC50 Profiler Express service)
Nature of the experiment: IC50 Profiler Express kinase assay. Format: biochemical. As for the experimental part:
as §1

The subject of experiment [3] is panel of 28 protein kinases. Put plainly: KinaseProfiler biochemical kinase activity assays. As to conditions: tested in parallel with 1-Azakenpaullone. As for the experimental part:
Experiments were carried out by Upstate Ltd. according to the protocols described in KinaseProfiler™ Assay Protocols Fall 2004 by Ustate Cell Signaling solutions.
Compounds 10c and e are structurally very similar to 1-Azakenpaullone and differ only by one substituent at position 9 of the D ring from their template 1-Azakenpaullone. […] These kinases were selected among about 250 different kinases based on their structural or functional similarity to GSK3, e.g. all available members of the CDK family were included in the survey because CDKs are most similar to GSK3 and several kinase inhibitors are known that inhibit members of both families. The direct comparison of different compounds in such an experiment provides information on the relative selectivity of the respective compounds.

The test system of experiment [4] is INS-1E cells. Put plainly: Ins-1E cell proliferation assay (BrdU incorporation). Format: cell-based, rat. As to conditions: maximum at 1 μM. As for the experimental part: The proliferation rate of Ins-1E cells was determined by monitoring DNA synthesis using a 5-bromo-2′-deoxyuridine (BrdU) incorporation assay. BrdU is a halogenated nucleotide analogue of thymidine that is incorporated into DNA during the S-phase of the cell cycle. Pulse-labeling of DNA with BrdU and subsequent immunohistochemical detection of labeled nuclei was used to study the rate of cell proliferation. The treatment of INS-1E cells with 4-Azakenpaullone for 24 hours increases BrdU incorporation of Ins-1E cells in a concentration dependent manner, reaching a maximum of about 1.4 fold between 5 μM and 10 μM 4-AKP.
The proliferation of Ins-1E insulinoma cells was determined by monitoring DNA synthesis as an indirect parameter of cell proliferation. The incorporation of the thymidine analogue 5-bromo-2′-deoxyuridine (BrdU) during replication into cellular DNA was used to label the DNA of mitotically active cells. After its incorporation into DNA, BrdU was detected by immunoassay.
10,000 Ins-1E cells were seeded per 96-well (black 96-well tissue culture plates, Falcon #353948) in 100 μl culture medium (RPMI 1640 containing 11 mM glucose, 5% FCS, 10 mM HEPES, 50 μM 2-mercaptoethanol, 1 mM MEM sodium pyruvate, 100 U/ml penicillin, 100 μg/ml streptomycin) and cultivated at 37° C., 5% CO2 in humidified atmosphere for 3 days. Media was changed to 100 μl starvation medium (culture medium with only 5 mM glucose, 1% FCS) and the cells were re-incubated for 1 day. Then media was exchanged to starvation medium containing test substances and the cells were further incubated for 24 h. For the last 4 hours BrdU was added to reach a concentration of 10 μM. Cell proliferation ELISA (Cell Proliferation ELISA, BrdU, chemiluminescence, Roche, cat. No. 1669915) was performed according to the manufacturers guidelines.
A general note: Uptake of a labelled nucleoside into DNA is a usual measure of proliferation.

Experiment [5] concerns INS-1E cells. Put plainly: Glucolipotoxicity induced apoptosis of INS-1E cells (overall assessment). Format: cell-based, rat. As to conditions: palmitate and glucose, 24 hours. As for the experimental part: (§2) The effects of the substance on cell viability, cell growth and specific apoptotic events such as caspases activity and DNA-fragmentation was monitored. INS-1E cell apoptosis was induced by treatment of cell cultures with toxic concentrations of glucose and palmitate for 24 hours. The substance of interest was added to the medium 1 hour prior to the addition of the toxic agents.
The effects of the test compounds on beta cell function were assessed using biological assays monitoring cellular metabolic activity as well as specific apoptotic events in Ins-1E cells.
(§3) 10,000 Ins-1E cells were seeded per 96-well (black 96-well tissue culture plates, Falcon #353948) in 100 μl culture medium (RPMI 1640 containing 11 mM glucose, 5% FCS, 10 mM HEPES, 50 μM 2-mercaptoethanol, 1 mM MEM sodium pyruvate, 100 U/ml penicillin, 100 μg/ml streptomycin) and cultivated at 37° C., 5% CO2 in humidified atmosphere for 3 days. Media was changed to 100 μl starvation medium (culture medium with only 5 mM glucose, 1% FCS) and the cells were re-incubated for 1 day. Then media was exchanged to starvation medium containing test substances.
(§4) Apoptosis of Ins-1E cells was induced by addition of a combination of BSA coupled palmitate and glucose (pal/gluc) or a combination of cytokines (cyt) 1 hour after starting the treatment with test substances: pal/gluc: 0.3 mM palmitate:BSA (palmitic acid sodium salt:fatty acid free BSA 6:1) and 25 mM glucose. 10×cyt: 0.04 ng/ml IL-1β and 1 ng/ml IFNγ. The cells were further incubated with test substances and apoptotic inducer for 24 hours.

Experiment [6] concerns primary rat beta cells. Nature of the experiment: Replication of primary rat beta cells (Ki67/C-peptide immunofluorescence). Format: cell-based. As to conditions: islets treated for 72 hours. As for the experimental part: Cells expressing the proliferation marker Ki67 as well as C-peptide were considered to be replicating beta cells. The percentage of replicating beta cells in islets not exposed to compound 10c (Co.) and islet treated for 72 hours with the indicated amounts of compound 10c was determined by immunofluorescence microscopy.
Isolated rat islets were cultured for 72 hours in the presence of compound 10c before the islets were disaggregated and dispersed on microscope slides. Replicating beta cells were identified by immunohistological staining of dispersed islets with antibodies against C-peptide, a proteolytic fragment of proinsulin, and the cell division marker Ki-67.
Islets of Langerhans are isolated by standard Liberase digestion method from rat pancreata (Liberase™ Cl enzyme blend BMB Cat. #1814-435, ROCHE).
Freshly isolated islets are cultured in vitro with or without the addition of the factor of interest for 48 h. Following the culture period the islets are dispersed gently by titration in Ca^2+ and Mg^2+ free PBS. […]
An Olympus microscope equipped with an automatic image acquisition device (Olympus) is used for counting of C-peptide positive beta cells. Proliferating C-peptide/Ki-67 double positive beta cells are counted manually. Thereby the fraction of proliferating beta cells can be determined.

Experiment [7] has as its system INS-1E cells. Put plainly: Caspase activity assay in glucose/palmitate stressed cells. As to conditions: 2.5 μM. Format: cell-based, rat. As for the experimental part: as §2
Caspase activation is a characteristic of early apoptotic cells. The experiment was carried out as described above with the exception that the caspases activity assay was applied instead of the DNA-fragmentation assay (see Example 3 for details).
as §3, §4
Caspase activity is a characteristic of early apoptotic cells. Their activity was quantified by an enzymatic assay (homogeneous caspases assay, Roche, cat. No. 03 005 372 001). Caspase activity was measured 3 hours after addition of caspases substrate according to the manufacturers guidelines.

T1 sequence (P06493 whole entry, species assumed): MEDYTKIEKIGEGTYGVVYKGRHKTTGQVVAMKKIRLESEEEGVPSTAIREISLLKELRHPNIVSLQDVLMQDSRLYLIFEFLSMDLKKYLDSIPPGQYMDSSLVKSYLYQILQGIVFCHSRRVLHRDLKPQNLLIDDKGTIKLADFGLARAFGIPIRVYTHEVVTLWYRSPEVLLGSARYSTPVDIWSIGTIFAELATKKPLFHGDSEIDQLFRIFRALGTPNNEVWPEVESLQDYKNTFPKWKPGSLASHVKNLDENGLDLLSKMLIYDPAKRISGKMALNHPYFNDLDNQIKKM
T1 sequence (P14635 whole entry partner, species assumed): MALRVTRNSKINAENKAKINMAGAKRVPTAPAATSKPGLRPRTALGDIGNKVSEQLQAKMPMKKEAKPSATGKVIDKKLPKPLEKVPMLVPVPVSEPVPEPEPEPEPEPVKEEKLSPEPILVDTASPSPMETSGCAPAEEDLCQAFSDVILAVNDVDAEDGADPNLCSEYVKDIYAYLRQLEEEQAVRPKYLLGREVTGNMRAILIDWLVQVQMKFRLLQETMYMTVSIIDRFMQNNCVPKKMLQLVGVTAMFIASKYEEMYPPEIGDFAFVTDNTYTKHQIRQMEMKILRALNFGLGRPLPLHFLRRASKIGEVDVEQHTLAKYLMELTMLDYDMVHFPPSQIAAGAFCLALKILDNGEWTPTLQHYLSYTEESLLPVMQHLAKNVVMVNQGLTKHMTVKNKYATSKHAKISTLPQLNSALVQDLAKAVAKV

For `N#Cc1ccc2[nH]c3c(c2c1)CC(=O)Nc1cccnc1-3` [Compound 10c, 6-Oxo-5,6,7,12-tetrahydropyrido[3′,2′:2,3]azepino[4,5-b]indole-9-carbonitrile], the “inhibition of human GSK3” value in experiment [1] is “potent inhibitor”. The “affinity to CDK1 relative to 1-Azakenpaullone” value in experiment [2] is “higher affinity to CDK1 than the reference compound 1-Azakenpaullone”. Also, the “inhibition of the enzymatic activity of cyclin dependent kinase 1” value in experiment [2] (compared with GSK3) is listed as “comparatively higher concentration of this inhibitor are required”. Moreover, the “kinase selectivity / activity profile” value in experiment [3] is given as “selective kinase inhibitors”. Also, the “BrdU incorporation relative to untreated controls (maximum)” value in experiment [4] is “about 1.5 fold”. For the same molecule, the “effect on glucolipotoxicity induced apoptosis” value in experiment [5] is “strongly antagonizes glucolipotoxicity induced apoptosis”. Also, the “replication of primary rat beta cells in culture” value in experiment [6] is listed as “stimulates the replication”. Moreover, the “reduction of caspase activity” value in experiment [7] is 77%.
